Like-named read-outs stand apart in the source and are kept apart here.
Assays:
[1] = Anti-inflammatory effect (carrageenin edema of hind paw); assay type: in vivo, Wistar-strain male rats; settings: Rattus norvegicus, po, orally, rats, 3 hours, read-out: anti-inflammatory effect (inhibition percentage of carrageenin edema)
Procedure: 2. Anti-inflammatory effect
A group of five Wistar-strain male rats (100-150 g) were orally administered with each test compound suspended in 0.5 % tragacanth-saline solution. After 30 minutes 0.5 %-1.0 % carrageenin suspended in the water for injection was injected subcutaneously to a hind paw. After 3 hours the carrageenin edema was measured by volume and the inhibition percentage was determined with respect to the results for the control animals. The inhibition percentages were shown with the notations as follows: […]

[2] = Analgetic effect (acetic acid writhing syndrome); assay type: in vivo, dd-strain male mice; settings: Mus musculus, po; orally, mice, acetic acid writhing
Procedure: Each test compound suspended in 0.5 % tragacanth-saline solution was orally administered to dd-strain male mice (18-20 g). After one hour 0.6% acetic acid solution was intraperitoneally injected in a volume of 0.1 ml/10 g.

dd-strain male mice = settings: 72 hours
Procedure: The lethal dose was estimated from the death of animals 72 hours after administration.

[3] = Analgetic effect (acetic acid writhing syndrome); assay type: in vivo, dd-strain male mice; settings: Mus musculus, ip, mice

Compound | inhibition in vivo at 10 mg/kg [1] | inhibition in vivo at 50 mg/kg [1] | ED50 [2] | acute toxicity (lethal dose) (dd-strain male mice; i.p.) | acute toxicity (lethal dose) (dd-strain male mice; p.o.) | inhibition in vivo at 100 mg/kg ([1]; dose 100 mg/kg) | ED50 [3]
O=c1c2cccnc2n(-c2cccc([N+](=O)[O-])c2)c(=S)n1CC(F)(F)F [Compound 39] | > 61% | 46 to 60% | 0.23 mg/kg | > 1000 mg/kg | > 2000 mg/kg | – | –
O=C(Cn1c(=O)c2cccnc2n(-c2cccc([N+](=O)[O-])c2)c1=O)c1ccc(Cl)cc1 [O --CH2 CO] | – | – | > 100 mg/kg | > 1000 mg/kg | > 2000 mg/kg | < 15% | –
Cc1c(N(C)C)c(=O)n(-c2ccccc2)n1C [aminopyrine, reference compound] | < 15% | < 15% | – | 100 to 300 mg/kg | – | – | 56 mg/kg
O=C(O)c1ccccc1Nc1cccc(C(F)(F)F)c1 [flufenamic acid, reference compound] | < 15% | 16 to 30% | 180 mg/kg | 300 to 1000 mg/kg | – | – | –
